Assays:
Test in all cases: cells
EW-18 = format: functional, cell-based; conditions: Homo sapiens;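 note: growth inhibition of EW-18 cells, read out by a cell viability assay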
Description: SANGER: Inhibition of human EW-18 cell growth in a cell viability assay.

U-118-MG = format: functional, cell-based, Homo sapiens; conditions: Homo sapiens, U-118-MG
Description: SANGER: Inhibition of human U-118-MG cell growth in a cell viability assay.

A 172 = format: functional, cell-based, Homo sapiens; conditions: Homo sapiens, A 172;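 note: growth inhibition of A172 cells, measured with a cell viability readout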
GAMG = format: functional, cell-based, Homo sapiens; conditions: Homo sapiens, GAMG;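 note: cell growth inhibition measured by a viability assay in the GAMG human cell line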
Description: SANGER: Inhibition of human GAMG cell growth in a cell viability assay.

SW1463 = format: functional, cell-based, Homo sapiens; conditions: Homo sapiens, SW1463;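 note: growth inhibition of SW1463 cells, determined with a cell viability assay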
Description: SANGER: Inhibition of human SW1463 cell growth in a cell viability assay.

UACC-257 = format: functional, cell-based, Homo sapiens; conditions: Homo sapiens, UACC-257
Description: SANGER: Inhibition of human UACC-257 cell growth in a cell viability assay.

BHY = format: functional, cell-based, Homo sapiens; conditions: Homo sapiens, BHY;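 note: cell growth inhibition read out by a viability assay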
Description: SANGER: Inhibition of human BHY cell growth in a cell viability assay.

SK-N-FI = format: functional, cell-based, Homo sapiens; conditions: Homo sapiens, SK-N-FI;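 note: cell viability assay measuring growth inhibition of human SK-N-FI cells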
Description: SANGER: Inhibition of human SK-N-FI cell growth in a cell viability assay.

TE-5 = format: functional, cell-based, Homo sapiens; conditions: Homo sapiens, TE-5;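 note: inhibition of cell growth, read out by a cell viability assay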
Description: SANGER: Inhibition of human TE-5 cell growth in a cell viability assay.

MFM-223 = format: functional, cell-based, Homo sapiens; conditions: Homo sapiens, MFM-223
Description: SANGER: Inhibition of human MFM-223 cell growth in a cell viability assay.

CAL-27 = format: functional, cell-based, Homo sapiens; conditions: Homo sapiens, CAL-27;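 note: Viability-based readout, IC50 reflecting inhibition of CAL-27 cell growth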
Description: SANGER: Inhibition of human CAL-27 cell growth in a cell viability assay.

EW-1 = format: functional, cell-based, Homo sapiens; conditions: Homo sapiens, EW-1
Description: SANGER: Inhibition of human EW-1 cell growth in a cell viability assay.

NB6 = format: functional, cell-based, Homo sapiens; conditions: Homo sapiens, NB6
Description: SANGER: Inhibition of human NB6 cell growth in a cell viability assay.

SW1417 = format: functional, cell-based, Homo sapiens; conditions: Homo sapiens, SW1417;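 note: growth inhibition of human SW1417 cells, read out with a cell viability assay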
Description: SANGER: Inhibition of human SW1417 cell growth in a cell viability assay.

SCC-25 = format: functional, cell-based, Homo sapiens; conditions: Homo sapiens, SCC-25;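 note: growth inhibition of SCC-25 cells, measured with a cell viability assay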
NCI-H23 = format: functional, cell-based, Homo sapiens; conditions: Homo sapiens, NCI-H23;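 note: cell viability assay measuring growth inhibition of NCI-H23 cells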
NCI-H1651 = format: functional, cell-based, Homo sapiens; conditions: Homo sapiens, NCI-H1651;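 note: Read-out is a cell viability assay, with IC50 expressing inhibition of NCI-H1651 cell growth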
Description: SANGER: Inhibition of human NCI-H1651 cell growth in a cell viability assay.

QIMR-WIL = format: functional, cell-based; conditions: Homo sapiens;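 note: growth inhibition of QIMR-WIL cells, read out with a cell viability assay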
Description: SANGER: Inhibition of human QIMR-WIL cell growth in a cell viability assay.

HuP-T3 = format: functional, cell-based, Homo sapiens; conditions: Homo sapiens, HuP-T3;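 note: HuP-T3 cell growth inhibition, read out with a cell viability assay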
Description: SANGER: Inhibition of human HuP-T3 cell growth in a cell viability assay.

IST-MEL1 = format: functional, cell-based, Homo sapiens; conditions: Homo sapiens, IST-MEL1;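 note: growth inhibition of the cell line, read out with a cell viability assay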
Description: SANGER: Inhibition of human IST-MEL1 cell growth in a cell viability assay.

NCI-H358 = format: functional, cell-based, Homo sapiens; conditions: Homo sapiens, NCI-H358;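 note: growth inhibition of NCI-H358 human cells, read out with a cell viability assay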
Description: SANGER: Inhibition of human NCI-H358 cell growth in a cell viability assay.

CCRF-CEM = format: functional, cell-based; conditions: Homo sapiens;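 note: inhibition of CCRF-CEM cell growth, measured by a cell viability assay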
Description: SANGER: Inhibition of human CCRF-CEM cell growth in a cell viability assay.

NB17 = format: functional, cell-based; conditions: Homo sapiens;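 note: growth inhibition of NB17 cells, read out with a cell viability assay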
Description: SANGER: Inhibition of human NB17 cell growth in a cell viability assay.

NCI-H1355 = format: functional, cell-based, Homo sapiens; conditions: Homo sapiens, NCI-H1355;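 note: growth inhibition of human NCI-H1355 cells, read out by a cell viability assay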
Description: SANGER: Inhibition of human NCI-H1355 cell growth in a cell viability assay.

SNU-387 = format: functional, cell-based, Homo sapiens; conditions: Homo sapiens, SNU-387
Description: SANGER: Inhibition of human SNU-387 cell growth in a cell viability assay.

U2OS = format: functional, cell-based, Homo sapiens, U-2-OS; conditions: Homo sapiens, U2OS;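 note: growth inhibition of human U-2-OS cells, determined with a cell viability assay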
Description: SANGER: Inhibition of human U-2-OS cell growth in a cell viability assay.

EW-24 = format: functional, cell-based; conditions: Homo sapiens;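 note: human EW-24 cancer cell line, growth inhibition read out via a cell viability assay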
Description: SANGER: Inhibition of human EW-24 cell growth in a cell viability assay.

EFO-27 = format: functional, cell-based, Homo sapiens; conditions: Homo sapiens, EFO-27;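 note: growth inhibition of EFO-27 cells, read out with a cell viability assay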
Description: SANGER: Inhibition of human EFO-27 cell growth in a cell viability assay.

CAPAN-1 = format: functional, cell-based, Homo sapiens; conditions: Homo sapiens, CAPAN-1;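 note: growth suppression of CAPAN-1 cells, read out by a cell viability assay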
Description: SANGER: Inhibition of human CAPAN-1 cell growth in a cell viability assay.

IST-MES1 = format: functional, cell-based, Homo sapiens; conditions: Homo sapiens, IST-MES1;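 note: growth inhibition of IST-MES1 cells, measured with a cell viability assay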
Description: SANGER: Inhibition of human IST-MES1 cell growth in a cell viability assay.

TE-10 = format: functional, cell-based, Homo sapiens; conditions: Homo sapiens, TE-10;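 note: growth inhibition of TE-10 cells, measured by a cell viability assay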
ABC-1 = format: functional, cell-based, Homo sapiens; conditions: Homo sapiens, ABC-1;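 note: growth inhibition of human ABC-1 cells, read out by a cell viability assay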
Description: SANGER: Inhibition of human ABC-1 cell growth in a cell viability assay.

OVCAR-8 = format: functional, cell-based, Homo sapiens; conditions: Homo sapiens, OVCAR-8;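 note: growth inhibition of human OVCAR-8 cells, read out by a cell viability assay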
Description: SANGER: Inhibition of human OVCAR-8 cell growth in a cell viability assay.

SK-MEL3 = format: functional, cell-based, Homo sapiens, SK-MEL-3; conditions: Homo sapiens, SK-MEL3;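 note: growth inhibition of human SK-MEL-3 cells, read out with a cell viability assay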
Description: SANGER: Inhibition of human SK-MEL-3 cell growth in a cell viability assay.

M059J = format: functional, cell-based, Homo sapiens; conditions: Homo sapiens, M059J;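 note: growth inhibition of M059J cells, read out with a cell viability assay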
Description: SANGER: Inhibition of human M059J cell growth in a cell viability assay.

MLMA = format: functional, cell-based, Homo sapiens; conditions: Homo sapiens, MLMA;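 note: growth inhibition of MLMA cells (human), determined through a cell viability readout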
Description: SANGER: Inhibition of human MLMA cell growth in a cell viability assay.

COR-L88 = format: functional, cell-based; conditions: Homo sapiens;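 note: growth inhibition of COR-L88 cells, read out with a cell viability assay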
Description: SANGER: Inhibition of human COR-L88 cell growth in a cell viability assay.

HuP-T4 = format: functional, cell-based, Homo sapiens; conditions: Homo sapiens, HuP-T4;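 note: cell viability assay measuring how much HuP-T4 cell growth is inhibited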
Description: SANGER: Inhibition of human HuP-T4 cell growth in a cell viability assay.

RPMI-8866 = format: functional, cell-based; conditions: Homo sapiens
Description: SANGER: Inhibition of human RPMI-8866 cell growth in a cell viability assay.

GMS-10 = format: functional, cell-based, Homo sapiens; conditions: Homo sapiens, GMS-10;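 note: growth inhibition of GMS-10 cells, read out as cell viability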
Description: SANGER: Inhibition of human GMS-10 cell growth in a cell viability assay.

NB69 = format: functional, cell-based, Homo sapiens; conditions: Homo sapiens, NB69;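 note: growth inhibition of NB69 cells, determined by a cell viability assay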
Description: SANGER: Inhibition of human NB69 cell growth in a cell viability assay.

HDLM-2 = format: functional, cell-based; conditions: Homo sapiens;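 note: cell viability assay measuring suppression of HDLM-2 proliferation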
Description: SANGER: Inhibition of human HDLM-2 cell growth in a cell viability assay.

COR-L23 = format: functional, cell-based, Homo sapiens; conditions: Homo sapiens, COR-L23;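 note: cell viability assay measuring how strongly compounds suppress growth of COR-L23 cells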
Description: SANGER: Inhibition of human COR-L23 cell growth in a cell viability assay.

NCI-H209 = format: functional, cell-based; conditions: Homo sapiens;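 note: growth inhibition of human NCI-H209 cells, measured by a cell viability assay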
Description: SANGER: Inhibition of human NCI-H209 cell growth in a cell viability assay.

COR-L105 = format: functional, cell-based, Homo sapiens; conditions: Homo sapiens, COR-L105;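 note: cell growth inhibition determined with a viability assay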
Description: SANGER: Inhibition of human COR-L105 cell growth in a cell viability assay.

MCF7 = format: functional, cell-based, Homo sapiens; conditions: Homo sapiens, MCF7;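 note: growth inhibition of human MCF7 cells, read out with a cell viability assay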
Description: SANGER: Inhibition of human MCF7 cell growth in a cell viability assay.

NCI-H1304 = format: functional, cell-based; conditions: Homo sapiens;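 note: growth inhibition of the cancer cell line, measured in a cell viability assay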
Description: SANGER: Inhibition of human NCI-H1304 cell growth in a cell viability assay.

BFTC-905 = format: functional, cell-based, Homo sapiens; conditions: Homo sapiens, BFTC-905
Description: SANGER: Inhibition of human BFTC-905 cell growth in a cell viability assay.

LNCaP-Clone-FGC = format: functional, cell-based, Homo sapiens; conditions: Homo sapiens, LNCaP-Clone-FGC
Description: SANGER: Inhibition of human LNCaP-Clone-FGC cell growth in a cell viability assay.

KYSE-180 = format: functional, cell-based, Homo sapiens; conditions: Homo sapiens, KYSE-180;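 note: growth inhibition of KYSE-180 cells, read out with a cell viability assay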
Description: SANGER: Inhibition of human KYSE-180 cell growth in a cell viability assay.

COLO-668 = format: functional, cell-based, Homo sapiens; conditions: Homo sapiens, COLO-668
Description: SANGER: Inhibition of human COLO-668 cell growth in a cell viability assay.

SMILES: CN(C)C/C=C/C(=O)Nc1cc2c(Nc3ccc(F)c(Cl)c3)ncnc2cc1O[C@H]1CCOC1 [AFATINIB]
- IC50 (EW-18): > 500 nM
- IC50 (U-118-MG): > 500 nM
- IC50 (A 172): > 500 nM
- IC50 (GAMG): > 500 nM
- IC50 (SW1463): > 500 nM
- IC50 (UACC-257): > 500 nM
- IC50 (BHY): 287 nM
- IC50 (SK-N-FI): > 500 nM
- IC50 (TE-5): > 500 nM
- IC50 (MFM-223): > 500 nM
- IC50 (CAL-27): 176 nM
- IC50 (EW-1): > 500 nM
- IC50 (NB6): > 500 nM
- IC50 (SW1417): > 500 nM
- IC50 (SCC-25): > 500 nM
- IC50 (NCI-H23): > 500 nM
- IC50 (NCI-H1651): > 500 nM
- IC50 (QIMR-WIL): > 500 nM
- IC50 (HuP-T3): > 500 nM
- IC50 (IST-MEL1): > 500 nM
- IC50 (NCI-H358): > 500 nM
- IC50 (CCRF-CEM): > 500 nM
- IC50 (NB17): > 500 nM
- IC50 (NCI-H1355): > 500 nM
- IC50 (SNU-387): > 500 nM
- IC50 (U2OS): > 500 nM
- IC50 (EW-24): > 500 nM
- IC50 (EFO-27): 51.8 nM
- IC50 (CAPAN-1): > 500 nM
- IC50 (IST-MES1): > 500 nM
- IC50 (TE-10): > 500 nM
- IC50 (ABC-1): > 500 nM
- IC50 (OVCAR-8): > 500 nM
- IC50 (SK-MEL3): > 500 nM
- IC50 (M059J): > 500 nM
- IC50 (MLMA): > 500 nM
- IC50 (COR-L88): > 500 nM
- IC50 (HuP-T4): > 500 nM
- IC50 (RPMI-8866): > 500 nM
- IC50 (GMS-10): > 500 nM
- IC50 (NB69): > 500 nM
- IC50 (HDLM-2): 5.72 nM
- IC50 (COR-L23): > 500 nM
- IC50 (NCI-H209): 205 nM
- IC50 (COR-L105): 211 nM
- IC50 (MCF7): > 500 nM
- IC50 (NCI-H1304): > 500 nM
- IC50 (BFTC-905): > 500 nM
- IC50 (LNCaP-Clone-FGC): > 500 nM
- IC50 (KYSE-180): 391 nM
- IC50 (COLO-668): > 500 nM

SMILES: CN(Cc1cnc2nc(N)nc(N)c2n1)c1ccc(C(=O)N[C@@H](CCC(=O)O)C(=O)O)cc1 [METHOTREXATE]
- IC50 (EW-18): > 200 nM
- IC50 (U-118-MG): > 200 nM
- IC50 (A 172): > 200 nM
- IC50 (GAMG): > 200 nM
- IC50 (SW1463): > 200 nM
- IC50 (UACC-257): > 200 nM
- IC50 (BHY): > 200 nM
- IC50 (SK-N-FI): > 200 nM
- IC50 (TE-5): > 200 nM
- IC50 (MFM-223): > 200 nM
- IC50 (CAL-27): > 200 nM
- IC50 (EW-1): 168 nM
- IC50 (NB6): > 200 nM
- IC50 (SW1417): > 200 nM
- IC50 (SCC-25): > 200 nM
- IC50 (NCI-H23): > 200 nM
- IC50 (NCI-H1651): > 200 nM
- IC50 (QIMR-WIL): 139 nM
- IC50 (HuP-T3): > 200 nM
- IC50 (IST-MEL1): 126 nM
- IC50 (NCI-H358): > 200 nM
- IC50 (CCRF-CEM): > 200 nM
- IC50 (NB17): > 200 nM
- IC50 (NCI-H1355): > 200 nM
- IC50 (SNU-387): > 200 nM
- IC50 (U2OS): 182 nM
- IC50 (EW-24): > 200 nM
- IC50 (EFO-27): > 200 nM
- IC50 (CAPAN-1): > 200 nM
- IC50 (IST-MES1): > 200 nM
- IC50 (TE-10): > 200 nM
- IC50 (ABC-1): > 200 nM
- IC50 (OVCAR-8): > 200 nM
- IC50 (SK-MEL3): > 200 nM
- IC50 (M059J): > 200 nM
- IC50 (MLMA): 96.5 nM
- IC50 (HuP-T4): > 200 nM
- IC50 (RPMI-8866): 20 nM
- IC50 (GMS-10): > 200 nM
- IC50 (NB69): > 200 nM
- IC50 (HDLM-2): 10 nM
- IC50 (COR-L23): 122 nM
- IC50 (NCI-H209): > 200 nM
- IC50 (COR-L105): > 200 nM
- IC50 (MCF7): > 200 nM
- IC50 (NCI-H1304): > 200 nM
- IC50 (BFTC-905): > 200 nM
- IC50 (LNCaP-Clone-FGC): > 200 nM
- IC50 (KYSE-180): > 200 nM
- IC50 (COLO-668): > 200 nM

From ChEMBL document CHEMBL1201861, “Genomics of Drug Sensitity in Cancer screening data, Wellcome Trust Sanger Institute”
